Tests used:
[1] = Ozone detection in ambient (outdoor) air; conditions: 8 hours
Procedure: In all cases, sensor 4=12.5 μM and all ozone assays were performed in 5:95 MeOH/pH 7 buffer. Solutions of senor 4 in 5:95 MeOH/pH 7 buffer were prepared and exposed to ambient air in various locations throughout a city on a hot, sunny day (˜32° C.) for 8 hours. A negative control was prepared in the same manner but incubated at 37° C. in a closed vial for 8 hours. […] Solutions of senor 4 ([4]final =12.5 μM) in 5:95 MeOH/pH 7 buffer ([PO4^3−]=5 mM) solution (4.0 mL) were prepared, and the samples were placed in high traffic outdoor areas for 8 hours. The samples were not exposed directly to sunlight. A negative control was prepared in the same manner but incubated at 37° C. in a closed vial for 8 hours. Following the 8 hour incubation period, the fluorescence of each sample was measured. Ozone detection in ambient air. Solution A (5.0 μL, [compound 4]final=12.5 μM) was added to a mixture of MeOH/pH 7 buffer ([PO4^3−]=5 mM) (5:95) (4.0 mL), and 4 samples were placed in 4 outdoor areas throughout University of Pittsburgh campus for 8 hours (high temperature=32.2° C.; AQI=43; PM2.5=64) on Jun. […] The samples were not exposed to direct sunlight. […] For each location, triplicate replicas were performed.

[2] = Ozone detection in indoor air on adsorbent paper strips; conditions: 500 nmol on adsorbent paper, photocopy room, eight hours
Procedure: One embodiment of the present invention can be a badge that contains compound 4 that may be worn by patients so their total ozone exposure can be continuously measured through the day. A proof-of-principle experiment was conducted with compound 4 and compound 1 as a comparative. A solution of compound 4 (500 nmol) in dimethylsulfoxide (DMSO) was absorbed on a piece of adsorbent paper and allowed to dry. The paper strips were stored in an office room that had two photocopiers and two laser printers. After eight hours, the paper strips were removed and placed in a vial that contained oH 7 buffer to elute the dyes. […] The deviation in these values is presumably because of photobleaching and the lack of specificity of compound 1 towards various ROS, including singlet oxygen.
Ozone detection in indoor air. FIG. 10 are photographic illustrations of results of Ozone detection tests in indoor air using the present invention. The top photograph is a Kimwipe® before placing into photocopy room for 8 hours. The bottom photographs are a Kimwipe® in buffer for absorbance and fluorescence measurement, wherein the left photograph is an indigo carmine taken in room light), and the right photograph is compound 4 taken under long-range UV lamp. One adsorbent paper (Kimwipe®) was cut into two 11×9 cm pieces. Solution A (50 μL, 500 nmol of compound 4) was added to one portion of the Kimwipe® and allowed to dry (FIG. 10, top right). Solution B (50 μL, 500 nmol of indigo carmine) was added to the other portion of the Kimwipe® and allowed to dry (FIG. 10, top left). After overnight drying in a laboratory drawer, the paper strips were moved to a poorly ventilated photocopy room (2 photocopiers and 2 laser printers) for 8 hours. The controls remained in the laboratory drawer. After 8 hours, the samples were placed into a scintillation vial, and the dyes were eluted with pH 7 buffer (6.0 mL) (˜5 min) before fluorescence and absorbance measurement. […] FIGS. 3C-D error bars were determined from the calculated mean and standard deviation (Prism 5.0a, GraphPad Software, Inc.).

[3] = Ozone detection in human serum; conditions: human serum diluted in pH 7 buffer, ozone ~5 μM
Procedure: FIG. 2E illustrates Ozone detection in human serum, wherein Left Sample: 4, no ozone; Right Sample: 4, + ozone.
One embodiment of the present invention utilized sensor 4 to detect ozone in human serum. […] One possible explanation may be due to the small Stokes shift that is found in fluorescein and its derivatives, which makes these fluorophores more prone to influences of scattering and interference.
Ozone detection in human serum. Human serum (1.0 mL) was diluted in pH 7 buffer ([PO4^3−]=5 mM) (3.0 mL). Solution A (5.0 μL, [compound 4]final=12.5 μM) was added to the resulting human serum mixture, and the samples were exposed to ozone (˜5 μM) at 24° C. followed by 1 hour incubation at 37° C. before fluorescence measurement. The experiment was performed in triplicate with an illustration of one of the tests represented in FIG. 2E.

## C=CCCOc1cc2oc3cc(=O)c(Cl)cc-3c(-c3ccccc3CO)c2cc1Cl [compound 4]
[1]
  ozone level correlating to S/B, based on linear regression: 13-22 ppb
[1]; 5:95 MeOH/pH 7 buffer
  S/B: 10-17
[2]
  compound 7 generated on paper strip: 0.95 nmol
[3]
  S/B: 92
